From the supplement of paper PMC10307832

Legend:
Test in all cases: relative viability (nuclei count vs DMSO), 5 days (fraction); higher = more cells survive
NCI-H2170 = system: NCI-H2170
Outline: (§1)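 Relative viability divides the nuclei count in treated wells by that in vehicle wells. Lung cancer cell lines were seeded in 1536-well plates, dosed by pin tool the next day, and fixed and stained after 5 days in one step with final 0.05% Triton X-100, 1% formaldehyde and 1 ug/ml Hoechst. Dosing was a single drug or a fixed anchor-drug dose plus five library-drug doses (not always all listed) in √10 steps, and values are medians of duplicate plates imaged at 4×.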

SK-LU-1 = system: SK-LU-1
Outline: as §1

UMC-11 = system: UMC-11
Outline: as §1

HCC-366 = system: HCC-366
Outline: as §1

NCI-H2342 = system: NCI-H2342
Outline: as §1

NCI-H2228 = system: NCI-H2228
Outline: as §1

NCI-H1915 = system: NCI-H1915
Outline: as §1

LCLC-103H = system: LCLC-103H
Outline: as §1

NCI-H1734 = system: NCI-H1734
Outline: as §1

NCI-H23 = system: NCI-H23
Outline: as §1

RERF-LC-KJ = system: RERF-LC-KJ
Outline: as §1

NCI-H1975 = system: NCI-H1975
Outline: as §1

NCI-H650 = system: NCI-H650
Outline: as §1

SW 1573 = system: SW 1573
Outline: as §1

HCC-827 = system: HCC-827
Outline: as §1

SK-MES-1 = system: SK-MES-1
Outline: as §1

A-427 = system: A-427
Outline: as §1

LC-2-ad = system: LC-2-ad
Outline: as §1

NCI-H1993 = system: NCI-H1993
Outline: as §1

NCI-H1355 = system: NCI-H1355
Outline: as §1

NCI-H2347 = system: NCI-H2347
Outline: as §1

NCI-H1755 = system: NCI-H1755
Outline: as §1

`Cc1cn(-c2cc(NC(=O)c3ccc(C)c(Nc4nccc(-c5cccnc5)n4)c3)cc(C(F)(F)F)c2)cn1` [Nilotinib] + Cc1cc(Nc2cc(N3CCN(C)CC3)nc(Sc3ccc(NC(=O)C4CC4)cc3)n2)n[nH]1 [Tozasertib] (partner 0.1 µM) was tested, and the relative viability (NCI-H2170; first compound 0.001 µM) was 0.734, the relative viability (NCI-H2170; first compound 0.003162 µM) was 0.77 and the relative viability (NCI-H2170; first compound 0.01 µM) was 0.795. For the same molecule, the relative viability (NCI-H2170; first compound 0.03162 µM) was 0.599, the relative viability (NCI-H2170; first compound 0.1 µM) was 0.55 and the relative viability (SK-LU-1; first compound 0.001 µM) was 0.304. The relative viability (SK-LU-1; first compound 0.003162 µM) was 0.292, the relative viability (SK-LU-1; first compound 0.01 µM) was 0.287 and the relative viability (SK-LU-1; first compound 0.03162 µM) was 0.293. It also gave a relative viability (SK-LU-1; first compound 0.1 µM) of 0.286, a relative viability (UMC-11; first compound 0.001 µM) of 0.191 and a relative viability (UMC-11; first compound 0.003162 µM) of 0.19. For the same molecule, the relative viability (UMC-11; first compound 0.01 µM) was 0.179, the relative viability (UMC-11; first compound 0.03162 µM) was 0.166 and the relative viability (UMC-11; first compound 0.1 µM) was 0.134. The relative viability (HCC-366; first compound 0.001 µM) was 0.0811, the relative viability (HCC-366; first compound 0.003162 µM) was 0.057 and the relative viability (HCC-366; first compound 0.01 µM) was 0.0646. The relative viability (HCC-366; first compound 0.03162 µM) was 0.072, the relative viability (HCC-366; first compound 0.1 µM) was 0.05 and the relative viability (NCI-H2342; first compound 0.001 µM) was 0.501. It also gave a relative viability (NCI-H2342; first compound 0.003162 µM) of 0.561, a relative viability (NCI-H2342; first compound 0.01 µM) of 0.45 and a relative viability (NCI-H2342; first compound 0.03162 µM) of 0.494. For the same molecule, the relative viability (NCI-H2342; first compound 0.1 µM) was 0.603, the relative viability (NCI-H2228; first compound 0.003162 µM) was 0.223 and the relative viability (NCI-H2228; first compound 0.01 µM) was 0.212. For the same molecule, the relative viability (NCI-H2228; first compound 0.03162 µM) was 0.16, the relative viability (NCI-H2228; first compound 0.1 µM) was 0.141 and the relative viability (NCI-H1915; first compound 0.001 µM) was 0.366. The relative viability (NCI-H1915; first compound 0.003162 µM) was 0.484, the relative viability (NCI-H1915; first compound 0.01 µM) was 0.457 and the relative viability (NCI-H1915; first compound 0.03162 µM) was 0.32. The relative viability (NCI-H1915; first compound 0.1 µM) was 0.311, the relative viability (LCLC-103H; first compound 0.001 µM) was 0.347 and the relative viability (LCLC-103H; first compound 0.003162 µM) was 0.425. For the same molecule, the relative viability (LCLC-103H; first compound 0.01 µM) was 0.452, the relative viability (LCLC-103H; first compound 0.03162 µM) was 0.364 and the relative viability (LCLC-103H; first compound 0.1 µM) was 0.293. For the same molecule, the relative viability (NCI-H1734; first compound 0.001 µM) was 0.251, the relative viability (NCI-H1734; first compound 0.003162 µM) was 0.273 and the relative viability (NCI-H1734; first compound 0.01 µM) was 0.324. It also gave a relative viability (NCI-H1734; first compound 0.03162 µM) of 0.231, a relative viability (NCI-H1734; first compound 0.1 µM) of 0.214 and a relative viability (NCI-H23; first compound 0.001 µM) of 0.303. The relative viability (NCI-H23; first compound 0.003162 µM) was 0.329, the relative viability (NCI-H23; first compound 0.01 µM) was 0.283 and the relative viability (NCI-H23; first compound 0.03162 µM) was 0.247. For the same molecule, the relative viability (NCI-H23; first compound 0.1 µM) was 0.226, the relative viability (RERF-LC-KJ; first compound 0.001 µM) was 0.335 and the relative viability (RERF-LC-KJ; first compound 0.003162 µM) was 0.416. The relative viability (RERF-LC-KJ; first compound 0.01 µM) was 0.305, the relative viability (RERF-LC-KJ; first compound 0.03162 µM) was 0.349 and the relative viability (RERF-LC-KJ; first compound 0.1 µM) was 0.302. The relative viability (NCI-H1975; first compound 0.001 µM) was 0.212, the relative viability (NCI-H1975; first compound 0.003162 µM) was 0.224 and the relative viability (NCI-H1975; first compound 0.01 µM) was 0.205. For the same molecule, the relative viability (NCI-H1975; first compound 0.03162 µM) was 0.154, the relative viability (NCI-H1975; first compound 0.1 µM) was 0.218 and the relative viability (NCI-H650; first compound 0.001 µM) was 0.665. For the same molecule, the relative viability (NCI-H650; first compound 0.003162 µM) was 0.67, the relative viability (NCI-H650; first compound 0.01 µM) was 0.725 and the relative viability (NCI-H650; first compound 0.03162 µM) was 0.672. It also gave a relative viability (NCI-H650; first compound 0.1 µM) of 0.68, a relative viability (SW 1573; first compound 0.001 µM) of 0.194 and a relative viability (SW 1573; first compound 0.003162 µM) of 0.165. It also gave a relative viability (SW 1573; first compound 0.01 µM) of 0.211, a relative viability (SW 1573; first compound 0.03162 µM) of 0.173 and a relative viability (SW 1573; first compound 0.1 µM) of 0.15. It also gave a relative viability (HCC-827; first compound 0.003162 µM) of 0.521, a relative viability (HCC-827; first compound 0.01 µM) of 0.529 and a relative viability (HCC-827; first compound 0.03162 µM) of 0.39. For the same molecule, the relative viability (HCC-827; first compound 0.1 µM) was 0.379, the relative viability (SK-MES-1; first compound 0.001 µM) was 0.804 and the relative viability (SK-MES-1; first compound 0.003162 µM) was 0.939. The relative viability (SK-MES-1; first compound 0.01 µM) was 1.05, the relative viability (SK-MES-1; first compound 0.03162 µM) was 0.572 and the relative viability (SK-MES-1; first compound 0.1 µM) was 0.524. It also gave a relative viability (A-427; first compound 0.001 µM) of 0.168, a relative viability (A-427; first compound 0.003162 µM) of 0.184 and a relative viability (A-427; first compound 0.01 µM) of 0.149. It also gave a relative viability (A-427; first compound 0.03162 µM) of 0.167, a relative viability (A-427; first compound 0.1 µM) of 0.168 and a relative viability (LC-2-ad; first compound 0.001 µM) of 0.371. The relative viability (LC-2-ad; first compound 0.003162 µM) was 0.337, the relative viability (LC-2-ad; first compound 0.01 µM) was 0.382 and the relative viability (LC-2-ad; first compound 0.03162 µM) was 0.384. For the same molecule, the relative viability (LC-2-ad; first compound 0.1 µM) was 0.403, the relative viability (NCI-H1993; first compound 0.001 µM) was 0.611 and the relative viability (NCI-H1993; first compound 0.003162 µM) was 0.668. For the same molecule, the relative viability (NCI-H1993; first compound 0.01 µM) was 0.622, the relative viability (NCI-H1993; first compound 0.03162 µM) was 0.586 and the relative viability (NCI-H1993; first compound 0.1 µM) was 0.631. The relative viability (NCI-H1355; first compound 0.001 µM) was 0.512, the relative viability (NCI-H1355; first compound 0.003162 µM) was 0.454 and the relative viability (NCI-H1355; first compound 0.01 µM) was 0.442. It also gave a relative viability (NCI-H1355; first compound 0.03162 µM) of 0.343, a relative viability (NCI-H1355; first compound 0.1 µM) of 0.316 and a relative viability (NCI-H2347; first compound 0.001 µM) of 0.451. For the same molecule, the relative viability (NCI-H2347; first compound 0.003162 µM) was 0.463, the relative viability (NCI-H2347; first compound 0.01 µM) was 0.489 and the relative viability (NCI-H2347; first compound 0.03162 µM) was 0.476. The relative viability (NCI-H2347; first compound 0.1 µM) was 0.3, the relative viability (NCI-H1755; first compound 0.001 µM) was 0.537 and the relative viability (NCI-H1755; first compound 0.003162 µM) was 0.548. For the same molecule, the relative viability (NCI-H1755; first compound 0.01 µM) was 0.483, the relative viability (NCI-H1755; first compound 0.03162 µM) was 0.578 and the relative viability (NCI-H1755; first compound 0.1 µM) was 0.415.
